Assay results reported in patent US7449498B2, “Composite materials for bone defect filling and bone replacement” (Yesbio Co., Ltd., priority 2005, dated 2008).

Test: Measurement of exothermic temperature during polymerization
Format: physicochemical
Settings: FIG. 3
Method: The composite material was mixed for 30 seconds and injected to a mold having a size in 5 mm of height and 3 mm of radius. Then, the temperature changes was measured in 3 samples per each group by inserting a thermocouple and read with a thermocouple reader (Yocogawa, Japan).

SMILES: C=C(C#N)C(=O)OCCCC [BCA, n-butyl-2-cyanoacrylate]
- temperature changes during polymerizing, in words: excessively exothermic
